The numbers were not newly measured in patent US20100330171A1, “Dietary Supplement for Eye Health” (priority 2008, published 2010), which cites them from elsewhere.

One data set has as its system tube formation. To be noted: Matigel-induced tube formation assay.
In the next data set the target is VEGFR-2 (Homo sapiens, UniProt P35968). The following applies: serum concentrations 0.01-1 microM.
The test system of data set [1] is human umbilical vein endothelial cells (HUVEC).
Data set [2] has as its system phosophoinositide-dependent protein kinase, Akt, apoptosis signal-regulating kinase, p38. To be noted: fibroblast growth factor-treated HUVEC.
Another data set concerns angiogenesis. To be noted: chick chorioallantoic membrane assay.
The subject of the next data set is bovine endothelial cells. The following applies: in vitro, bovine endothelial cells stimulated by FGF-2.
Data set [3] relates to human colon cancer cell line. The following applies: by blocking the induction of VEGF.
For data set [4] the following is noted: compared with ascorbic acid (vitamin C) and tocopherol (vitamin E).
In another data set the target is T1, leukocyte elastase (Homo sapiens, UniProt P08246).
T1 sequence (P08246 30-267): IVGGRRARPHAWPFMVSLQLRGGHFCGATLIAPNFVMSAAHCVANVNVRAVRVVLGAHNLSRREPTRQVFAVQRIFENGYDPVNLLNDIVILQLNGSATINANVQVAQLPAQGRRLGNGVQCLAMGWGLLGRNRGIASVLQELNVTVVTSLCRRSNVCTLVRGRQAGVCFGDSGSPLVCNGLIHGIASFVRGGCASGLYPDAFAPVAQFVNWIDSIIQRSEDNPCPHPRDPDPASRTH

A further data set concerns the target MMP-9 (Homo sapiens, UniProt P14780).

Chain of VEGFR-2 (P35968 20-1356, species assumed): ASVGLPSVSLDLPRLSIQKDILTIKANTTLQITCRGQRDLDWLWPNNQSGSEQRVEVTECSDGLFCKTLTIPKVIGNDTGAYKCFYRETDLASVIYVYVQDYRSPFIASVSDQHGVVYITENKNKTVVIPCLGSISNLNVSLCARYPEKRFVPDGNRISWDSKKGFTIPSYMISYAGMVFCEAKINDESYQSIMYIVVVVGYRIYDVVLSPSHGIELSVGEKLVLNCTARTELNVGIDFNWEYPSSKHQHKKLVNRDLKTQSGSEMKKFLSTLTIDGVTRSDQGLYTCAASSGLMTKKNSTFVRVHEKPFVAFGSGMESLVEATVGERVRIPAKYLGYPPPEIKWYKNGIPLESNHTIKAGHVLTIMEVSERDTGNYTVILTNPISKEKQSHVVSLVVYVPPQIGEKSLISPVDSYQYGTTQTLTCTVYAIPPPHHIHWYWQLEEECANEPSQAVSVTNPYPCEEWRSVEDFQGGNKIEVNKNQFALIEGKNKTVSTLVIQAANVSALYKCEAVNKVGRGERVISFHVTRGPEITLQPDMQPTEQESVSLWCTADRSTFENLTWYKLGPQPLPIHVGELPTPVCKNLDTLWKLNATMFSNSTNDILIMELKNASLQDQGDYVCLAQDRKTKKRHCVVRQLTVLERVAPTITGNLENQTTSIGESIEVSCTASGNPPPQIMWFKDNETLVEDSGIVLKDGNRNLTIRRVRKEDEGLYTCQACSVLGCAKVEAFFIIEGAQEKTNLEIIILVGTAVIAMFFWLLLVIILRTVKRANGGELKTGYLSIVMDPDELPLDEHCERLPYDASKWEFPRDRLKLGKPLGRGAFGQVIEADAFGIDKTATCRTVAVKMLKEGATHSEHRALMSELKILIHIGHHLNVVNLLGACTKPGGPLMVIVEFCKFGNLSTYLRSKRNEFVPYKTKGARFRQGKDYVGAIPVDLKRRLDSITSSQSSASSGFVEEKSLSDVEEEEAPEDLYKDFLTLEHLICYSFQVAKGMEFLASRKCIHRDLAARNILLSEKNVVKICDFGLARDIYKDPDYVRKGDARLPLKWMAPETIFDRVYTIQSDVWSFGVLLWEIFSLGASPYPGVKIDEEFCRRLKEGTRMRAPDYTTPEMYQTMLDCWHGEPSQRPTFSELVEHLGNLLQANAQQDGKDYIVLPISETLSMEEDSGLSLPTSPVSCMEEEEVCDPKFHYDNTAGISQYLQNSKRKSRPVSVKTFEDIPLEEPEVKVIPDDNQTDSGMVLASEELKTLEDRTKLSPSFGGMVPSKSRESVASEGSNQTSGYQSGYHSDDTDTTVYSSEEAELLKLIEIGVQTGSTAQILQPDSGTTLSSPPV
Chain of MMP-9 (P14780 94-707, species assumed): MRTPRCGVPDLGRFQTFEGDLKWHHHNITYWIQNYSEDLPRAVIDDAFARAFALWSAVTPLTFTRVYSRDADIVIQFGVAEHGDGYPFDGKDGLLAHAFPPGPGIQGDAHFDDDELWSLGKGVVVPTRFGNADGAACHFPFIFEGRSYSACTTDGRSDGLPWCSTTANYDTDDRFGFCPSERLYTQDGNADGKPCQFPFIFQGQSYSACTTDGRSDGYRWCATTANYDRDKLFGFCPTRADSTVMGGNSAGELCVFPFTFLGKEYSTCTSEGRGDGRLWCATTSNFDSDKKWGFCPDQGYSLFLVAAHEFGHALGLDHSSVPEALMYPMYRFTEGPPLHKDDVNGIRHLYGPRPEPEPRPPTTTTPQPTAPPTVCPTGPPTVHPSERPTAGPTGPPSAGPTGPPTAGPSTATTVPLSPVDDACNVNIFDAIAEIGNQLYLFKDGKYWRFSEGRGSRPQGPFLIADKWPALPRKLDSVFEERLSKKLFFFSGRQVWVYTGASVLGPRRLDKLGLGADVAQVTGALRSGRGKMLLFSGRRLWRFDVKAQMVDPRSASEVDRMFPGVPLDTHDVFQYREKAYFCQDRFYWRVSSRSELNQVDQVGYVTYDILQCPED

With `O=C(O[C@@H]1Cc2c(O)cc(O)cc2O[C@H]1c1ccc(O)c(O)c1)c1cc(O)c(O)c(O)c1` [CG, catechin-3 gallate], the tube formation entry in the data set with tube formation was “almost completely abolished”. The “inhibition of VEGF-dependent phosphorylation of VEGFR-2” value at VEGFR-2 is reported as “inhibit”.
With `CC(C)=CCC/C(C)=C/CC/C(C)=C/CC[C@]1(C)CCc2cc(O)c(C)c(C)c2O1` [γ-tocotrienol], the “suppression of fibroblast growth factor-induced proliferation, migration and tube formation” value in data set [1] is on record as “highest activity”. Moreover, in data set [2], the “phosphorylation of apoptosis signal-regulating kinase and p38” value is “increasing”; the “phosphorylation of phosophoinositide-dependent protein kinase and Akt” value was “suppressing”.
Consider Epigallocatechin-3-gallate [EGCG], for which, in the data set with angiogenesis, the “formation of new blood vessels” value is recorded as “block”. Further, the endothelial cell growth entry with bovine endothelial cells is listed as “suppress”. Moreover, the microvessel density entry in [3] is reported as “reduces”. Besides, in the data set on tube formation, the tube formation result was “almost completely abolished”. In addition, the “inhibition of VEGF-dependent phosphorylation of VEGFR-2” value at VEGFR-2 is given as “inhibit”. In addition, the “quenching reactive oxygen species” value in data set [4] is on record as “more effective”. Moreover, on leukocyte elastase, the “inhibition of leukocyte elastase” value is recorded as “inhibit”. Moreover, at MMP-9, the “inhibition of MMP-9” value was “inhibits”. Also, the “gene expression of TNF-alpha and the cytokines IL-1 beta and IL-10 induced by TNF-alpha” value in the data set on TNF-alpha is listed as “block”.
